Columns and labels:
healthy humans = assay: Phase I single dose: haematology and serum chemistry; type: in vivo, human; settings: Day 2
Y1 = target: T1, Y1 (Homo sapiens, UniProt P25929); assay: Receptor binding profile of VSN16R; settings: 10µM VSN16R
T1 construct: purchased Cerep; Chantest; DiscoveRx; Multispan; MDS Pharma Services

TA98 = assay: Bacterial reverse mutation, revertants per plate; type: cell-based, Salmonella typhimurium
Protocol: (§1) Strain of Organism Treatment Dose Revertants per plate
(§2) First Mutation without Metabolic Stimulation
(§3) Second Mutation without Metabolic Stimulation
(§4) VSN16R was incubated at various concentrations with either TA1535, TA1537, TA98 and TA100 strains of Salmonella typhimurium, which carry mutations in genes involved in histidine synthesis, and WP2uvvA Escherichia coli. The bacteria are spread on agar plates with limiting histidine content and incubated for 48 h. The number of histidine gene negative to positive revertants was assessed in two experiments. The results represent the mean ± SD. n=3/group. This was performed by Charles

TA1535 = assay: Bacterial reverse mutation, revertants per plate; type: cell-based, Salmonella typhimurium
Protocol: as §1, §2, §3, §4

TA1537 = assay: Bacterial reverse mutation, revertants per plate; type: cell-based, Salmonella typhimurium
Protocol: as §1, §2, §3, §4

TA100 = assay: Bacterial reverse mutation, revertants per plate; type: cell-based, Salmonella typhimurium
Protocol: as §1, §2, §3, §4

CB2 = target: T2, CB2 (Homo sapiens, UniProt P34972); assay: Receptor binding profile of VSN16R
T2 construct: purchased Cerep; Chantest; DiscoveRx; Multispan; MDS Pharma Services

Pharmacokinetics in rats = type: in vivo, rat
Protocol: The stability of compounds when subjected to hepatic and plasma degradation was assessed in vitro by Inpharmatica, Cambridge, UK. Compounds (1 μM) were incubated with either pooled mouse liver microsomes (0.1 mg protein mL^−1) or pooled mouse plasma at 37°C for 0, 5, 10, 20 and 40 min before termination with acetonitrile containing warfarin as an analytical internal standard. Samples were centrifuged, and the resultant supernatant analysed for parent compound. The mass responses at baseline were taken as the 100% reference values against which the disappearance of the compound was measured. The natural log of the % remaining values was used to generate linear plots of disappearance of the compounds. Half‐life values were calculated from the slope of these plots. Hepatocyte metabolism was assessed by Cyprotex, Macclesfield, and 10 μM VSN16R was incubated with primary mouse, rat, monkey (Macaque) and human hepatocytes for 1 h, and the presence of metabolites was assessed using liquid […] mass spectroscopy. The stability of VSN16R was assessed in vivo by Inpharmatica, Cyprotex and Charles Rivers, Cambridge. Blood (plasma) samples were obtained prior to and 5 min to 24 h after drug administration of 2–5 mg·kg^−1 i.v. or 5 mg·kg^−1 p.o. VSN16R into outbred mice and rats (n = 3 per time point). In addition, plasma, brain and spinal cord samples were obtained from ABH with spastic EAE. Immediately after blood collection, the brain and spinal cord were removed and then stored at −20°C prior to assay. Tissue samples were weighed, homogenized and centrifuged, and the lysates generated. Brain lysates and plasma were assayed by LC–MS methods by Inpharmatica/Charles Rivers, Cambridge, UK. This was also performed using a Waters Xevo TQ or API4000, AB Sciex mass spectrometer using spiked samples as standards. PK Solutions Software (Summit Research Services, Montrose, CO, USA), AB Sciex Analyst software combined with Thermo Fisher Scientific Watson LIMS processing and reporting software or WinNonLin pharmacokinetic or PK solutions 2.0 software (Summit Research Services, Montrose CO, USA) were used to produce PK parameters. Data are expressed as mean ± SEM. The detection limit of VSN16R was 2 ng·mL^−1 in plasma and brain and 14 ng·mL^−1 in spinal cords. The detection limit of VSN22R was 2 ng·mL^−1 in plasma and 0.1 ng·mL^−1 for VSN44R in plasma. Pharmacokinetics in toxicological samples in rats (n = 6 per group), dogs (n = 6 per group) and humans (n = 6 per group) were performed by Charles Rivers (Edinburgh, UK).

[1] = test system: Salmonella typhimurium and Escherichia coli strains; assay: Standard Ames test (summary); type: cell-based
Protocol: as §1, §2, §3, §4

CYP450 3A5 = CYP450 3A5 (Homo sapiens, UniProt P20815)
Source text: IC50 Inhibition of substrate binding
Inhibition of binding of either 3-cyano-7-ethoxycoumarin, dibenzylfluorescein or 7-benzyoxy-4-
(trifluoromethyl) coumarin in human enzyme transfected BTI NN-5B1-4 cells or Sf9 insect cells or
inhibition of dextromethorphan substrate to CYP450 2D6 in liver microsomes.

EDG6 = target: T3, EDG6 (Homo sapiens, UniProt O95977); assay: Receptor binding profile of VSN16R; settings: 10µM VSN16R
T3 construct: purchased Cerep; Chantest; DiscoveRx; Multispan; MDS Pharma Services

EDG4 = target: T4, EDG4 (Homo sapiens, UniProt Q9HBW0); assay: Receptor binding profile of VSN16R; settings: 10µM VSN16R
T4 construct: purchased Cerep; Chantest; DiscoveRx; Multispan; MDS Pharma Services

[2] = First Mutation without Metabolic Stimulation, 17µg
[3] = First Mutation without Metabolic Stimulation, 5000µg
[4] = Second Mutation without Metabolic Stimulation, 17µg
[5] = Second Mutation without Metabolic Stimulation, 5000µg
[6] = first 12 h following p.o. dosing of rats

T2 sequence (P34972 whole entry): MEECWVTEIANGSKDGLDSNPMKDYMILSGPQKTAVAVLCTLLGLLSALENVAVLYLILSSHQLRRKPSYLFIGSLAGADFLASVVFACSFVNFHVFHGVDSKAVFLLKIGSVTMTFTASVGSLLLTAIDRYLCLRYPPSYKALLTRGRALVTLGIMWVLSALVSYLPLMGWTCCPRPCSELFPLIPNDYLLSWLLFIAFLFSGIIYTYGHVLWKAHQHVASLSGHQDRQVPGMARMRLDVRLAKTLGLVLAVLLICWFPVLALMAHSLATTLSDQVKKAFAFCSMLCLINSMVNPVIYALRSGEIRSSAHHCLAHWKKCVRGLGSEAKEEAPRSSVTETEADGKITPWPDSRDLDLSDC
T4 sequence (Q9HBW0 whole entry): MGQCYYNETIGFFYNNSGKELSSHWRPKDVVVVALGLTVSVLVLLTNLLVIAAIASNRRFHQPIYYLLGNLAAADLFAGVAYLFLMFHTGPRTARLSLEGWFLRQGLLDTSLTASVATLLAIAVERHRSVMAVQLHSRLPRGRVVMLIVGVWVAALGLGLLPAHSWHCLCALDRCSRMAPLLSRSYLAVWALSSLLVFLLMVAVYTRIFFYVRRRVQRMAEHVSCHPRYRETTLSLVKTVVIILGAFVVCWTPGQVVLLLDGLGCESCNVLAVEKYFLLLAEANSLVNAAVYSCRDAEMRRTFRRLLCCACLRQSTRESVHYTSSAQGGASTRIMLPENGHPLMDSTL
T3 sequence (O95977 whole entry): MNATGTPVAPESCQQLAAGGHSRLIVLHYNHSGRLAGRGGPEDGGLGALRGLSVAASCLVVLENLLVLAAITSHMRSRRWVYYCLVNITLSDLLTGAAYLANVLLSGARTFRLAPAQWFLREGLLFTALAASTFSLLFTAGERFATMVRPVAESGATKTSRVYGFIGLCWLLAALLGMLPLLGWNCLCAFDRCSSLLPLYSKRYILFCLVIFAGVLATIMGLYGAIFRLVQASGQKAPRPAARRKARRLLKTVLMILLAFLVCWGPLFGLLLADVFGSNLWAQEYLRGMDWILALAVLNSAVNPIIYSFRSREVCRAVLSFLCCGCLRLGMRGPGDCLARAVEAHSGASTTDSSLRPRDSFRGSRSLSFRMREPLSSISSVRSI
Chain of CYP450 3A5 (P20815 whole entry): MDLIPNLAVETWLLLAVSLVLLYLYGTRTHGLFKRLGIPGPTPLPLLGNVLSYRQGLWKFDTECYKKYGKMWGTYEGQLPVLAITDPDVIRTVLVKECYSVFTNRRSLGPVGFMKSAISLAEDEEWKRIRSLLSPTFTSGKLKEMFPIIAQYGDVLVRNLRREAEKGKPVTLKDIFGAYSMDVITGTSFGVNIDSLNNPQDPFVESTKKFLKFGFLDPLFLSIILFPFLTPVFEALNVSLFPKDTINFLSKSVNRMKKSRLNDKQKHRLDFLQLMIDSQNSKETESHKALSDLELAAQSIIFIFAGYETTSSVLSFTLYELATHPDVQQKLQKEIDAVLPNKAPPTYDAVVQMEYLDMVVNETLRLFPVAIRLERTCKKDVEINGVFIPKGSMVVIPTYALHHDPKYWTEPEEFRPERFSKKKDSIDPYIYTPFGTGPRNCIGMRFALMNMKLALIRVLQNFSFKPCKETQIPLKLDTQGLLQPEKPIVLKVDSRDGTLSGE
T1 sequence (P25929 whole entry): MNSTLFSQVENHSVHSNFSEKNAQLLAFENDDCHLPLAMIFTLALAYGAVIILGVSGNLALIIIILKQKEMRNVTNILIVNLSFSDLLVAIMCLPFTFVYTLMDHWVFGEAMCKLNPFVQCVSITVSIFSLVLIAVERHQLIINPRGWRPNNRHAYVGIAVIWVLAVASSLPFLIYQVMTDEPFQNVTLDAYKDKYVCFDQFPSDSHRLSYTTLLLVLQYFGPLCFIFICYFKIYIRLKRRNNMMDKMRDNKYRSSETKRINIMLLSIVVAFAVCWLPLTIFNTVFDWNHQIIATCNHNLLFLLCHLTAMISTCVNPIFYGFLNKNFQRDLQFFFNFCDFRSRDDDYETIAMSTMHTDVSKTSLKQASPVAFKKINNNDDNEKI

For `C[C@H](CO)NC(=O)c1cccc(/C=C\CCCC(=O)N(C)C)c1` [VSN16R], the Albumin (healthy humans; 25mg) was 42 ± 1 g/L, the Amylase (healthy humans; 25mg) was 65 ± 21 U/L and the Basophils (healthy humans; 25mg) was 0.0 ± 0.0 109 cells/L. The Bilirubin (healthy humans; 25mg) was 14.9 ± 6.1 µmol/L, the Calcium (healthy humans; 25mg) was 2.40 ± 0.08 mmol/L and the Chloride (healthy humans; 25mg) was 104 ± 2 mmol/L. The Cholesterol (healthy humans; 25mg) was 4.79 ± 0.77 mmol/L, the Creatinine (healthy humans; 25mg) was 84 ± 10 µmol/L and the Eosinophils (healthy humans; 25mg) was 0.2 ± 0.1 109 cells/L. It also gave a Globulin (healthy humans; 25mg) of 28.8 ± 5.6 g/L, a Glucose (healthy humans; 25mg) of 4.78 ± 0.58 mmol/L and a Haemoglobin (healthy humans; 25mg) of 9.4 ± 0.5 mmol/L. The Hematocrit (healthy humans; 25mg) was 0.425 ± 0.021, the Lymphocytes (healthy humans; 25mg) was 1.9 ± 0.6 109 cells/L and the Magnesium (healthy humans; 25mg) was 0.8 ± 0.0 mmol/L. The Monocytes (healthy humans; 25mg) was 0.5 ± 0.1 109 cells/L, the Neutrophils (healthy humans; 25mg) was 2.5 ± 0.6 109 cells/L and the Phosphate (healthy humans; 25mg) was 1.20 ± 0.10 mmol/L. The Potassium (healthy humans; 25mg) was 4.27 ± 0.18 mmol/L, the “Red Blood Cells” value (healthy humans; 25mg) was 4.94 ± 0.30 1012 cells/L and the Sodium (healthy humans; 25mg) was 141 ± 2 mmol/L. The Triglycerides (healthy humans; 25mg) was 1.26 ± 0.25 mmol/L, the Urea (healthy humans; 25mg) was 4.4 ± 0.9 mmol/L and the “White Blood Cells” value (healthy humans; 25mg) was 5.2 ± 1.2 109 cells/L. The Albumin (healthy humans; 800mg) was 42 ± 1 g/L, the Amylase (healthy humans; 800mg) was 50 ± 12 U/L and the Basophils (healthy humans; 800mg) was 0.0 ± 0.0 109 cells/L. The Bilirubin (healthy humans; 800mg) was 11.4 ± 3.0 µmol/L, the Calcium (healthy humans; 800mg) was 2.35 ± 0.04 mmol/L and the Chloride (healthy humans; 800mg) was 104 ± 1 mmol/L. For the same compound, the Cholesterol (healthy humans; 800mg) was 4.68 ± 0.78 mmol/L, the Creatinine (healthy humans; 800mg) was 84 ± 10 µmol/L and the Eosinophils (healthy humans; 800mg) was 0.3 ± 0.1 109 cells/L. The Globulin (healthy humans; 800mg) was 28.9 ± 1.2 g/L, the Glucose (healthy humans; 800mg) was 5.51 ± 0.92 mmol/L and the Haemoglobin (healthy humans; 800mg) was 9.3 ± 0.5 mmol/L. The Hematocrit (healthy humans; 800mg) was 0.421 ± 0.016, the Lymphocytes (healthy humans; 800mg) was 1.8 ± 0.6 109 cells/L and the Magnesium (healthy humans; 800mg) was 0.8 ± 0.1 mmol/L. The Monocytes (healthy humans; 800mg) was 0.5 ± 0.1 109 cells/L, the Neutrophils (healthy humans; 800mg) was 2.7 ± 1.2 109 cells/L and the Phosphate (healthy humans; 800mg) was 1.02 ± 0.10 mmol/L. The Potassium (healthy humans; 800mg) was 4.19 ± 0.25 mmol/L, the “Red Blood Cells” value (healthy humans; 800mg) was 4.87 ± 0.30 1012 cells/L and the Sodium (healthy humans; 800mg) was 142 ± 3 mmol/L. The Triglycerides (healthy humans; 800mg) was 1.55 ± 0.61 mmol/L, the Urea (healthy humans; 800mg) was 4.7 ± 0.4 mmol/L and the “White Blood Cells” value (healthy humans; 800mg) was 5.0 ± 1.1 109 cells/L. For the same compound, the Activity (Y1) was “Negligible Activity”, the Revertants per plate (TA98; [2]) was 15.3 ± 4.7 and the Revertants per plate (TA98; [3]) was 18.3 ± 7.1. The Revertants per plate (TA98; [4]) was 23.3 ± 1.2, the Revertants per plate (TA98; [5]) was 23.7 ± 1.2 and the Revertants per plate (TA1535; [2]) was 9.0 ± 6.6. For the same compound, the Revertants per plate (TA1535; [3]) was 13.7 ± 2.1, the Revertants per plate (TA1535; [4]) was 14.0 ± 5.6 and the Revertants per plate (TA1535; [5]) was 11.3 ± 3.5. It also gave a Revertants per plate (TA1537; [2]) of 13.3 ± 1.5, a Revertants per plate (TA1537; [3]) of 7.0 ± 1.7 and a Revertants per plate (TA1537; [4]) of 12.3 ± 2.9. For the same compound, the Revertants per plate (TA1537; [5]) was 10.3 ± 2.9, the Revertants per plate (TA100; [2]) was 79.3 ± 7.6 and the Revertants per plate (TA100; [3]) was 79.3 ± 5.5. For the same compound, the Revertants per plate (TA100; [4]) was 85.7 ± 6.7, the Revertants per plate (TA100; [5]) was 99.3 ± 5.5 and the Activity (CB2; 10µM VSN16R) was “Negligible Activity”. For the same compound, the “Binding to CB2 receptors” value (CB2; tested to 10 μM) was “did not bind”, the Faecal elimination (Pharmacokinetics in rats; [6]) was “approximately 1 % of the dose” and the Renal excretion (Pharmacokinetics in rats; [6]) was “less than 0.5 % of the dose”. The bioavailability (Pharmacokinetics in rats; in vivo, po, 5 mg·kg^−1 p.o., rat) was 40%, the half-life (Pharmacokinetics in rats; rat, plasma, po, 5 mg·kg^−1 p.o., rats, read-out: Elimination half‐life) was 43 min and the “Mutagenesis in a standard Ames test” value [1] was “no evidence of mutagenesis”. The IC50 (CYP450 3A5) was over 10 µM, the Activity (EDG6) was “Negligible Activity” and the Activity (EDG4) was “Negligible Activity”.

Source: paper PMC5522996, “Big conductance calcium‐activated potassium channel openers control spasticity without sedation” (British Journal of Pharmacology, 2017)
